One series concerns the target IDO (Homo sapiens, UniProt P14902). As to the kind of experiment: Inhibition of IFN-γ induced IDO activity in Hela cells. The class given is cell-based. To be noted: Hela cell lines (FIGS. 7A, 7B).
The next series relates to Hela cells. Put plainly: alamarBlue cell proliferation (cytotoxicity) assay, Hela. The class given is cell-based. Conditions: 100 nM, 2 days incubation. How it is done: (§1) FIGS. 6A-6C. Cell viability study of HuMEC cells, MCA-MB-231 cells, and Hela cells, respectively, incubated with 100 nM of IDO inhibitors. After 2 days of incubation, alamarBlue cell viability reagent was added to cells and the fluorescence intensity (arbitrary fluorescent units) was measured after 3 hours incubation (n=4). Cytotoxicity of four IDO inhibitors toward different cell lines was evaluated with a cell proliferation assay using alamarBlue cell viability reagent. Hela cells were cultured in EMEM medium (ATCC 30-2003) containing 10% FBS, MDA-MB-231 and MCF-7 were cultured in RPMI-1640 Medium containing 10% FBS, while HuMEC cells were cultured in HuMEC medium (ATCC 12752-010). The cell proliferation assay included the following: harvesting of the cells by trypsinization and adding culture media to adjust to 10000 cell/mL; add 0.2 mL of cell suspension to each well and incubated at 37° C. in 5% CO2 atmosphere for 2 days; adding 1 μL of inhibitor solution (0.1 mM in DMSO) into growth media (1 mL) to get growth media w/inhibitor; aspirating spent growth medium from the wells and adding 200 μL of growth media w/ inhibitors and incubating at 37° C. in 5% CO2 atmosphere for 2 days; adding 20 μL of the alamarBlue (Invitrogen) into each well; incubating for addition 3 hours at 37° C. in 5% CO2 atmosphere; and reading the fluorescence intensity of each well with a plate reader (excitation, 544 nm; Emission 595 nm). The fluorescent signal is linear to the number of living cells.
(In general: Resazurin is reduced to fluorescent resorufin, in cell work by metabolically active cells.)

In another series the test system is MDA-MB-231 cells. As to the kind of experiment: alamarBlue cell proliferation (cytotoxicity) assay, MDA-MB-231. The class given is cell-based. Conditions: 100 nM, 2 days incubation. How it is done: as §1
The subject of another series is MCF-7 cells. As to the kind of experiment: alamarBlue cell proliferation (cytotoxicity) assay, MCF-7. The class given is cell-based. To be noted: 100 nM, 2 days incubation. The protocol: as §1
The test system of a further series is HuMEC cells. As to the kind of experiment: alamarBlue cell proliferation (cytotoxicity) assay, HuMEC. It is filed as cell-based. Conditions: 100 nM, 2 days incubation. The protocol: as §1
For series [1] the following is noted: via oral administration; cited from earlier work.
Another series addresses T1, tumor IDO expression (Mus musculus, UniProt P28776).
T1 construct: from tissue; host or cells: living CLL tumor mice (whole-animal microPET/CT)
Put plainly: microPET/CT imaging of CLL mouse model versus wild-type mouse. It is filed as in vivo. Conditions: imaged 1 hour after i.p. injection of the probe; CLL tumor mice vs wild-type mice. How it is done: Mice were imaged 1 hour after i.p. injection of the probe.

Sequence of IDO (P14902 whole entry): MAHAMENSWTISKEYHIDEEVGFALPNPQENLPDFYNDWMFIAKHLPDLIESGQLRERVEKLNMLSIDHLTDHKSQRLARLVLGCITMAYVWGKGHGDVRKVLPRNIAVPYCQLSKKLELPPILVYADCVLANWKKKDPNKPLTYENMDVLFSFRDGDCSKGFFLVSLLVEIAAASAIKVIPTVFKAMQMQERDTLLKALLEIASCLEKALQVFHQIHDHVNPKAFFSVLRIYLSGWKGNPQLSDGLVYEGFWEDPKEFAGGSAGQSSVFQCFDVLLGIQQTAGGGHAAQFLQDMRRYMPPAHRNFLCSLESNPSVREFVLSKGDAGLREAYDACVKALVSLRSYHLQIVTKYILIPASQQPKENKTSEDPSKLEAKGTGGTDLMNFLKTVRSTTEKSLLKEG
T1 sequence (P28776 whole entry): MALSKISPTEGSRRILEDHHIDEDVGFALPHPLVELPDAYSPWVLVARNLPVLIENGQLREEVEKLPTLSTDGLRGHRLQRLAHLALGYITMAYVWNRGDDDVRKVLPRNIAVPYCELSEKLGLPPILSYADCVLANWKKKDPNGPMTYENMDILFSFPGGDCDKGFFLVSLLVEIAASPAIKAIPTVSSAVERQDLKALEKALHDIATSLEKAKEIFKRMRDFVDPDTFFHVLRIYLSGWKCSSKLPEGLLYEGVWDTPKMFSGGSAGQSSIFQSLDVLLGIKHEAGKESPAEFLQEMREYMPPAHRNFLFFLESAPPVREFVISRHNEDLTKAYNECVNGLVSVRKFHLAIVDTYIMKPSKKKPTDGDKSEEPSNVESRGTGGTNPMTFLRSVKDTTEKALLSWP

`ON=C(Nc1ccc(F)c(Cl)c1)c1nonc1NCCF` [IDO4-9]: the “Inhibition of IDO activity” value at IDO is recorded as “inhibited”. Further, the Cytotoxicity result in the series on Hela cells, in the series with MDA-MB-231 cells, with MCF-7 cells and with HuMEC cells was “no cytotoxicity” each time.

For the compound `Nc1nonc1C(=NO)Nc1ccc(F)c(Cl)c1` [IDO5L, 4-Amino-N-(3-chloro-4-fluorophenyl)-N′-hydroxy-1,2,5-oxadiazole-3-carboximidamide], on IDO, the “Inhibition of IDO activity” value is “inhibited”. In addition, the Cytotoxicity entry in the series on Hela cells, in the series on MDA-MB-231 cells, in the series with MCF-7 cells and in the series with HuMEC cells was “no cytotoxicity” each time. Further, in series [1], the “t½ (clearance rate)” value is less than 30 min.

In the case of `O=C(Cc1ccc(F)cc1)Nc1nonc1/C(=N/O)Nc1ccc(F)c(Cl)c1` [IDO5], the “Inhibition of IDO activity” value on IDO is “inhibited”.

On to `O=C(Nc1nonc1/C(=N/O)Nc1ccc(F)c(Cl)c1)c1ccc(F)cc1` [IDO6], for which the “Inhibition of IDO activity” value at IDO is “inhibited”. Further, the Cytotoxicity result with Hela cells, in the series with MDA-MB-231 cells, in the series on MCF-7 cells and in the series on HuMEC cells was “no cytotoxicity” each time.

Take `O/N=C(\Nc1ccc(F)c(Cl)c1)c1nonc1NCCO/N=C\c1ccc(F)cc1` [IDO7]: the “Inhibition of IDO activity” value on IDO was “inhibited”.

For the compound `Nc1nonc1/C(=N/O)Nc1ccc([18F])c(Cl)c1` [^18F-IDO5L, [18F] 4-amino-N-(3-chloro-4-fluorophenyl)-N′-hydroxy-1,2,5-oxadiazole-3-carboximidamide], at tumor IDO expression, the “microPET/CT detection of tumor IDO expression” value is “distinguishes IDO-positive chronic lymphocytic leukemia (CLL) mouse model and wild-type mouse in vivo”.
